Results: patent publication US20240424107A1, “PREPARATION OF SITE-SPECIFIC POLYPEPTIDE CONJUGATES” (POSTECH RESEARCH AND BUSINESS DEVELOPMENT FOUNDATION, priority 2023, published 2024)

Molecular target: T1, Human-alpha thrombin (Homo sapiens, UniProt P00734)
T1 construct: Human-alpha thrombin and its well-known aptamers, HD1
Experiment: Covalent conjugation of oxanine-containing aptamer to thrombin, conversion rate over time (SDS-PAGE/electrophoresis)
Format: biochemical
Details: thrombin 1.25 μM, HEPES pH 8.4, 37° C., FIG. 3
Protocol: Human-alpha thrombin and its well-known aptamers, HD1 (15-mer length of aptamer that binds to exosite I of thrombin; 5′-[…]-3′; SEQ ID NO: 1) and HD2 (29-mer length of aptamer that binds to exosite II of thrombin; 5′-[…]-3′; SEQ ID NO: 2) were used. Each aptamer labeled with fluorescent dye at 5′-terminus and 10 dOTPs at 3′-terminus was prepared (See Example 1-1) and mixed with thrombin. Specifically, thrombin (1.25 μM), NaCl (100 mM), MgCl2 (5 mM), KCl (5 mM), Tween-20 (0.01% v/v), and oxanine-inserted HD1 (1 equiv. relative to thrombin) and HD2 (2 equiv. relative to thrombin) in HEPES (50 mM pH 8.4) were mixed at 37° C. for 1 day.
Whether the aptamer brings oxanine close to the amine group of the target protein, enabling proximity-enhanced covalent bond formation, was monitored with SDS-PAGE (protein bands) and electrophoresis (DNA bands). As a comparison group, aptamers HD1 and HD2 without oxanine introduced, or random DNA (not aptamer) with oxanine introduced, were used, and an untreated control group without any treatment with thrombin was also used for comparison.

In the case of “HD1: 15-mer thrombin exosite I aptamer 5′-GGTTGGTGTGGTTGG-3′ with fluorescent dye at 5′-terminus and 10 dOTPs (oxanine) at 3′-terminus (DNA, backbone not given here; 5' fluorescent dye, 3' tail of ten oxanine deoxynucleotides)”, the “time to reach 50% modification rate (conversion of aptamer to aptamer-thrombin conjugate)” value is reported as ≤ 12.6 min.

With “HD22: 29-mer thrombin exosite II aptamer 5′-AGTCCGTGGTAGGGCAGGTTGGGGTGACT-3′ with fluorescent dye at 5′-terminus and 10 dOTPs (oxanine) at 3′-terminus (DNA, backbone not given here; 5' fluorescent dye, 3' tail of ten oxanine deoxynucleotides)” the “time to reach 50% modification rate (conversion of aptamer to aptamer-thrombin conjugate)” value was ≤ 101 min.
